Laboratory results taken from ChEMBL document CHEMBL1201862, “PubChem BioAssay data set” (2004).
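How tested: cells in 96-well plates exposed to compound for 48 hours at five concentrations. GI50 = concentration required for 50% inhibition of growth.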 Activity calls are given as the source filed them. No stated cut-off is given here; in the data, active = GI50 up to about 1.1 µM and inactive = higher.

Columns and labels:
Test in all cases: NCI-60 cell line screen, 48 h
PC-3 = tested on: PC-3
NCI/ADR-RES = tested on: NCI/ADR-RES
IGROV-1 = tested on: IGROV-1
SF-268 = tested on: SF-268
TK-10 = tested on: TK-10
SF-539 = tested on: SF-539
SK-MEL-5 = tested on: SK-MEL-5
CCRF-CEM = tested on: CCRF-CEM
SK-OV-3 = tested on: SK-OV-3
LOX IMVI = tested on: LOX IMVI
MDA-MB-231 = tested on: MDA-MB-231
OVCAR-4 = tested on: OVCAR-4
ACHN = tested on: ACHN
NCI-H522 = tested on: NCI-H522
T47D = tested on: T47D
A498 = tested on: A498
RXF 393 = tested on: RXF 393
DMS-114 = tested on: DMS-114
LXFL 529 = tested on: LXFL 529
DMS-273 = tested on: DMS-273

Row | SMILES | GI50 (PC-3) | GI50 (NCI/ADR-RES) | GI50 (IGROV-1) | GI50 (SF-268) | GI50 (TK-10) | GI50 (SF-539) | GI50 (SK-MEL-5) | GI50 (CCRF-CEM) | GI50 (SK-OV-3) | GI50 (LOX IMVI) | GI50 (MDA-MB-231) | GI50 (OVCAR-4) | GI50 (ACHN) | GI50 (NCI-H522) | GI50 (T47D) | GI50 (A498) | GI50 (RXF 393) | GI50 (DMS-114) | GI50 (LXFL 529) | GI50 (DMS-273)
1 | Cc1nc(O)c(Cc2ccccc2O)c(-c2ccccc2)n1 | > 100 µM (inactive) | > 100 µM (inactive) | > 100 µM (inactive) | > 100 µM (inactive) | > 100 µM (inactive) | > 100 µM (inactive) | > 100 µM (inactive) | 99.3 µM (inactive) | > 100 µM (inactive) | > 100 µM (inactive) | 98.9 µM (inactive) | > 100 µM (inactive) | > 100 µM (inactive) | > 100 µM (inactive) | 78.5 µM (inactive) | > 100 µM (inactive) | > 100 µM (inactive) |  |  | 
2 | CC1=NN2C(c3ccc(C)cc3)=CSC2=NC(C)(C)C1 |  |  | > 100 µM (inactive) | > 100 µM (inactive) | > 100 µM (inactive) | > 100 µM (inactive) | > 100 µM (inactive) | > 100 µM (inactive) | > 100 µM (inactive) | > 100 µM (inactive) |  | > 100 µM (inactive) | > 100 µM (inactive) | > 100 µM (inactive) |  | > 100 µM (inactive) | > 100 µM (inactive) | 71 µM (inactive) | > 100 µM (inactive) | 
3 | CC(=O)NNc1nc(C)c(C(=O)NNC(=O)C(=O)Nc2ccc(Cl)c([N+](=O)[O-])c2)s1 |  |  | > 100 µM (inactive) | 35.8 µM (inactive) | > 100 µM (inactive) | 53 µM (inactive) | > 100 µM (inactive) | 21.9 µM (inactive) | > 100 µM (inactive) | 31.3 µM (inactive) |  | 34.4 µM (inactive) | 41.1 µM (inactive) | 26.2 µM (inactive) |  |  |  | 46.9 µM (inactive) | 27.2 µM (inactive) | 
4 | CCCCc1ccc(Nc2nc3c(ncn3COCCBr)c(=O)[nH]2)cc1 | > 100 µM (inactive) | > 100 µM (inactive) | > 100 µM (inactive) | > 100 µM (inactive) | > 100 µM (inactive) | > 100 µM (inactive) | > 100 µM (inactive) | > 100 µM (inactive) | > 100 µM (inactive) | > 100 µM (inactive) | > 100 µM (inactive) | > 100 µM (inactive) | > 100 µM (inactive) | > 100 µM (inactive) | 40.1 µM (inactive) | > 100 µM (inactive) | 84.5 µM (inactive) |  |  | 
5 | Nc1nc(N)c(-c2ccccc2)c(C(=O)Nc2nccs2)n1 |  |  | > 100 µM (inactive) | > 100 µM (inactive) | > 100 µM (inactive) | > 100 µM (inactive) | > 100 µM (inactive) | > 100 µM (inactive) | > 100 µM (inactive) | > 100 µM (inactive) |  | > 100 µM (inactive) | > 100 µM (inactive) |  |  |  | > 100 µM (inactive) | > 100 µM (inactive) | > 100 µM (inactive) | 
6 | NC(=O)c1ccc(NCC2=CC(=O)C=CC2=O)cc1 | 18.6 µM (inactive) | 25.6 µM (inactive) | 20.8 µM (inactive) | 22.9 µM (inactive) | 17.7 µM (inactive) | 17.1 µM (inactive) | 15.5 µM (inactive) | 7.01 µM (inactive) | > 100 µM (inactive) | 17.5 µM (inactive) | 20.1 µM (inactive) | 19.8 µM (inactive) | 17.7 µM (inactive) | 16.3 µM (inactive) | 28.1 µM (inactive) | 33.9 µM (inactive) | 18.7 µM (inactive) |  |  | 
7 | CCOC(=O)c1c(C)n(Cc2ccccc2)c(=O)c2ccccc2c(=O)c2c(=O)ccc(=O)c1=2 | 39.7 µM (inactive) | 92.7 µM (inactive) | 22.3 µM (inactive) | 57.7 µM (inactive) | 29.1 µM (inactive) | 48.2 µM (inactive) | > 100 µM (inactive) | 42.1 µM (inactive) | > 100 µM (inactive) | 25.2 µM (inactive) | 65 µM (inactive) | 45 µM (inactive) | 30.7 µM (inactive) | 23.9 µM (inactive) | 30.6 µM (inactive) | > 100 µM (inactive) | 23.8 µM (inactive) |  |  | 
8 | Cc1ccc(S(=O)(=O)N/N=C(\C(=O)Nc2cccc([N+](=O)[O-])c2)c2nc3ccc([N+](=O)[O-])cc3nc2O)cc1 |  |  | > 100 µM (inactive) | 48.5 µM (inactive) |  | 24.6 µM (inactive) | 26 µM (inactive) | 7.64 µM (inactive) | > 100 µM (inactive) | 10.4 µM (inactive) |  | > 100 µM (inactive) | 13.8 µM (inactive) | 5.66 µM (inactive) |  | 17.1 µM (inactive) | > 100 µM (inactive) | 10.2 µM (inactive) | 18.6 µM (inactive) | 
9 | CCCCCCCCCCCCC/C=C1\C[C@H](O)COC1=O |  |  | 18.1 µM (inactive) | 20.4 µM (inactive) | 17.6 µM (inactive) | 19.8 µM (inactive) | 13.7 µM (inactive) | 14.3 µM (inactive) | 20.8 µM (inactive) |  |  | 16.9 µM (inactive) | 15.9 µM (inactive) | 17.1 µM (inactive) |  | 18.9 µM (inactive) | 20 µM (inactive) |  | 16.3 µM (inactive) | 14.4 µM (inactive)
10 | CCC1(CC)SCc2nc3ccccc3n21 | 13.8 µM (inactive) | 25.6 µM (inactive) | 34.2 µM (inactive) | 52 µM (inactive) | 38.8 µM (inactive) | 54.3 µM (inactive) | 20.9 µM (inactive) | 33.4 µM (inactive) | 38.5 µM (inactive) | 34.8 µM (inactive) | 29.6 µM (inactive) | 20.6 µM (inactive) | 30.1 µM (inactive) | 37.6 µM (inactive) | 49.7 µM (inactive) | 40.1 µM (inactive) | 32.2 µM (inactive) |  |  | 
11 | CC(=O)N(CN1C(=O)CCC1C(=O)O)c1ccccc1 (configuration not stated) | > 55.8 µM (inactive) | 29.9 µM (inactive) | > 50.4 µM (inactive) | > 52.4 µM (inactive) | > 53.5 µM (inactive) | > 50.6 µM (inactive) | > 58.7 µM (inactive) | > 54.2 µM (inactive) | > 56.1 µM (inactive) | > 56.9 µM (inactive) | > 48.8 µM (inactive) | > 100 µM (inactive) | > 56.6 µM (inactive) | > 53 µM (inactive) | > 57.3 µM (inactive) | > 59.7 µM (inactive) | > 60.3 µM (inactive) |  |  | 
12 | CCC(=O)OC[n+]1ccc2c(C)c3[nH]c4ccc(OC)cc4c3c(C)c2c1 |  |  | 0.048 µM (active) | 0.24 µM (active) | 0.94 µM (active) | 0.243 µM (active) | 0.728 µM (active) | 0.0685 µM (active) |  | 0.0927 µM (active) |  | 0.0865 µM (active) | 0.0485 µM (active) |  |  | 1.06 µM (active) | 0.166 µM (active) | 0.104 µM (active) | 0.0582 µM (active) | 
13 | CCN(CC)/C(SCc1ccccc1)=C(\C(Cl)=C(Cl)Cl)[N+](=O)[O-] | 21.6 µM (inactive) | 17.1 µM (inactive) | 17.2 µM (inactive) | 18.4 µM (inactive) | 19.2 µM (inactive) | 19.7 µM (inactive) | 16.3 µM (inactive) | 12.5 µM (inactive) | 39.6 µM (inactive) | 14.1 µM (inactive) | 27.1 µM (inactive) | 15.6 µM (inactive) | 16.3 µM (inactive) | 16.6 µM (inactive) | 18.9 µM (inactive) | 13.6 µM (inactive) | 13.1 µM (inactive) |  |  | 
14 | Cc1ccc(C(=O)Nc2ccccc2)cc1/N=N/N(C)C |  |  | > 100 µM (inactive) | > 100 µM (inactive) | > 100 µM (inactive) | > 100 µM (inactive) | > 100 µM (inactive) |  |  | > 100 µM (inactive) |  | > 100 µM (inactive) | > 100 µM (inactive) | 35.2 µM (inactive) |  |  |  |  | > 100 µM (inactive) | > 100 µM (inactive)
15 | O=C/C=C/c1ccco1 | > 100 µM (inactive) | > 100 µM (inactive) | > 100 µM (inactive) | > 100 µM (inactive) | > 100 µM (inactive) | 94.8 µM (inactive) | > 100 µM (inactive) | 9.48 µM (inactive) | > 100 µM (inactive) | > 100 µM (inactive) | > 100 µM (inactive) | > 100 µM (inactive) | > 100 µM (inactive) | > 100 µM (inactive) | > 100 µM (inactive) | > 100 µM (inactive) | > 100 µM (inactive) |  |  | 
16 | COC(=O)NC(Cc1ccccc1)NC(=O)OC(C)(C)C (configuration not stated) | > 100 µM (inactive) | > 100 µM (inactive) | > 100 µM (inactive) | > 100 µM (inactive) | > 100 µM (inactive) | > 100 µM (inactive) | > 100 µM (inactive) | > 100 µM (inactive) | > 100 µM (inactive) | > 100 µM (inactive) | > 100 µM (inactive) | > 100 µM (inactive) | > 100 µM (inactive) | 96.4 µM (inactive) | > 100 µM (inactive) | > 100 µM (inactive) | > 100 µM (inactive) |  |  | 
17 | COC(=O)C1N=CSCC1(C)O (configuration not stated) |  |  | > 100 µM (inactive) | > 100 µM (inactive) | > 100 µM (inactive) | > 100 µM (inactive) | > 100 µM (inactive) | > 100 µM (inactive) | > 100 µM (inactive) | > 100 µM (inactive) |  | > 100 µM (inactive) | > 100 µM (inactive) |  |  | > 100 µM (inactive) | > 100 µM (inactive) | > 100 µM (inactive) |  | 
18 | Cn1nnc2c(C(N)=O)ncn2c1=O [TEMOZOLOMIDE] | > 100 µM (inactive) | > 100 µM (inactive) | > 100 µM (inactive) | > 100 µM (inactive) | > 100 µM (inactive) | > 100 µM (inactive) | > 100 µM (inactive) | 78.3 µM (inactive) | 58.7 µM (inactive) | 82 µM (inactive) | > 100 µM (inactive) | > 100 µM (inactive) | > 100 µM (inactive) | > 100 µM (inactive) | > 100 µM (inactive) |  | > 100 µM (inactive) | > 100 µM (inactive) | > 100 µM (inactive) | 
